The values below are quoted from earlier work in patent publication US8617618B2, “Topical compositions containing magaldrate” (Difass International S.R.L., priority 2007, dated 2013).

The conditions of data set [1]: in water and alcohol; white, crystalline powder.
The next data set relates to gastric pH. The settings on record: rapid, persistent ability to maintain the gastric pH.
For data set [2] the following is noted: single and repeated oral doses.
The conditions of data set [3]: humans, oral intake.

Take Magaldrate: the solubility result in data set [1] is recorded as “insoluble”. The “gastric pH maintained” value with gastric pH is on record as 3-5. Further, the toxicity result in data set [2] is “almost non-toxic”. Also, the “absorption of aluminium or magnesium” value in data set [3] is on record as “not followed by any significant absorption”.
